Measured values from patent US10294202B2, “Pyrrolidinones as herbicides” (FMC Corporation, priority 2013, dated 2019).

Tests used:
[1] = tested on: wheat; assay: Test A pre-/postemergence herbicide test; type: in vivo, Triticum aestivum; details: Postemergence
Outline: (§1)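 Seeds in loam–sand blend received preemergence directed soil spray; separately, plants 2–10 cm at one- to two-leaf stage received postemergence spray, both with test chemicals in non-phytotoxic solvent with surfactant. After ~10 days in greenhouse, injury rated visually against untreated controls, 0 (no effect) to 100 (complete control).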

[2] = tested on: morningglory; assay: Test C pre-/postemergence herbicide test; type: in vivo, Ipomoea coccinea
Outline: (§2)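 Pre-emergence: seeds sown in loam/sand blend and treated with compound in surfactant-containing solvent. Post-emergence: plants at 2–18 cm (1- to 4-leaf stage) in peat-based medium sprayed with the same formulation. Visual rating versus controls after 13–15 days in greenhouse, scale 0 (no effect) to 100 (complete control).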

[3] = tested on: pigweed; assay: Test A pre-/postemergence herbicide test; type: in vivo, Amaranthus retroflexus
Outline: as §1

[4] = tested on: corn; assay: Test C pre-/postemergence herbicide test; type: in vivo, Zea mays
Outline: as §2

[5] = tested on: ryegrass, Italian; assay: Test C pre-/postemergence herbicide test; type: in vivo, Lolium multiflorum
Outline: as §2

[6] = tested on: barnyardgrass; assay: Test C pre-/postemergence herbicide test; type: in vivo, Echinochloa crus-galli
Outline: as §2

[7] = tested on: blackgrass; assay: Test C pre-/postemergence herbicide test; type: in vivo, Alopecurus myosuroides
Outline: as §2

[8] = tested on: velvetleaf; assay: Test C pre-/postemergence herbicide test; type: in vivo, Abutilon theophrasti
Outline: as §2

[9] = tested on: nutsedge, yellow; assay: Test C pre-/postemergence herbicide test; type: in vivo, Cyperus esculentus
Outline: as §2

[10] = tested on: galium; assay: Test C pre-/postemergence herbicide test; type: in vivo, Galium aparine
Outline: as §2

[11] = Postemergence, 31 g ai/ha, scale 0 to 100 (0 no effect, 100 complete control)
[12] = Postemergence, 62 g ai/ha, scale 0 (no effect) to 100 (complete control)
[13] = Postemergence, 125 g ai/ha, scale 0 to 100 (0 no effect, 100 complete control)
[14] = Postemergence, 250 g ai/ha, scale 0 to 100 (0 no effect, 100 complete control)
[15] = Preemergence, 31 g ai/ha, scale 0 to 100, 0 is no effect and 100 is complete control
[16] = Preemergence, 62 g ai/ha, scale 0 to 100 (0 no effect, 100 complete control)
[17] = Preemergence, 125 g ai/ha, scale 0 to 100 (0 no effect, 100 complete control)
[18] = preemergence, 500 g ai/ha, 0 to 100 scale, 0 is no effect and 100 is complete control
[19] = Preemergence, 62 g ai/ha, scale 0 to 100
[20] = 125 g ai/ha, visual rating on 0 to 100 scale (0 no effect, 100 complete control), approx. 10 days
[21] = Postemergence, 125 g ai/ha, visual rating on 0 to 100 scale (0 no effect, 100 complete control), approx. 10 days
[22] = Preemergence, 125 g ai/ha, 0 to 100 scale where 0 is no effect and 100 is complete control
[23] = Preemergence, 125 g ai/ha, scale 0 to 100
[24] = Preemergence, 31 g ai/ha, scale 0 to 100

O=C1NCC(c2ccc(C(F)(F)F)cc2)C1C(=O)Nc1cccc(F)c1F (racemic) [Compound 202]
95: Plant response rating, Barnyardgrass [6, 17] | Plant response rating (scale of 0 to 100; 0 is no effect, 100 is complete control), Barnyardgrass ([6]; Preemergence, 250 g ai/ha)
75: Plant response rating, Corn [4, 17]
5: Plant response rating, Morningglory [2, 11] | Plant response rating, Ryegrass, Italian [5, 13] | Plant response rating (scale of 0 to 100), Ryegrass, Italian ([5]; Preemergence, 250 g ai/ha) | Plant response rating, Blackgrass [7, 13]
65: Plant response rating, Barnyardgrass [6, 12] | Plant response rating, Barnyardgrass [6, 13] | Plant response rating (scale of 0 to 100), Velvetleaf ([8]; Preemergence, 250 g ai/ha)
20: Corn plant response rating [4, 15] | Plant response rating, Velvetleaf [8, 12]
70: Plant response rating, Morningglory [2, 13] | Plant response rating, Pigweed ([3]; Postemergence, 125 g ai/ha, 0 to 100 scale, 0 is no effect, 100 is complete control) | Plant response rating, Pigweed [3, 18] | Blackgrass plant response rating [7, 15]
35: Plant response rating, Corn [4, 14] | Plant response rating, Ryegrass, Italian [5, 14]
0: Plant response rating, Corn [4, 11] | Plant response rating, Corn [4, 12] | Plant response rating, Ryegrass, Italian [5, 11] | Plant response rating, Ryegrass, Italian [5, 12] | Ryegrass, Italian plant response rating [5, 15] | Plant response rating, Blackgrass [7, 11] | Plant response rating, Blackgrass [7, 12] | Plant response rating, Nutsedge, Yellow [9, 11] | Plant response rating, Nutsedge, Yellow [9, 12] | Plant response rating, Nutsedge, Yellow [9, 13] | Plant response rating, Nutsedge, Yellow [9, 14] | Nutsedge, Yellow plant response rating [9, 15] | Nutsedge, Yellow plant response rating [9, 16] | Plant response rating, Nutsedge, Yellow [9, 17] | Plant response rating (scale of 0 to 100), Nutsedge, Yellow ([9]; Preemergence, 250 g ai/ha)
15: Morningglory plant response rating [2, 15]
25: Morningglory plant response rating [2, 16] | Plant response rating, Morningglory [2, 17] | Plant response rating, Barnyardgrass [6, 11]
50: Wheat plant response rating (0 to 100 scale, 0 is no effect, 100 is complete control) ([1]; 500 g ai/ha) | Plant response rating, Velvetleaf [8, 17]
90: Barnyardgrass plant response rating [6, 15] | Plant response rating, Barnyardgrass [6, 19] | Plant response rating, Blackgrass [7, 17] | Plant response rating (scale of 0 to 100), Blackgrass ([7]; Preemergence, 250 g ai/ha) | Galium plant response rating [10, 16] | Plant response rating, Galium [10, 17] | Plant response rating (scale of 0 to 100), Galium ([10]; Preemergence, 250 g ai/ha)
85: Corn plant response rating [4, 16] | Plant response rating (scale of 0 to 100), Corn ([4]; Preemergence, 250 g ai/ha) | Plant response rating, Barnyardgrass [6, 14] | Galium plant response rating [10, 15]
60: Plant response rating, Pigweed ([3]; 125 g ai/ha, visual rating, 0 to 100 scale, 0 no effect, 100 complete control, approximately 10 days, preemergence)
80: Pigweed plant response rating (0 to 100 scale, 0 is no effect, 100 is complete control) ([3]; Postemergence, 500 g ai/ha) | Plant response rating, Blackgrass [7, 19] | Plant response rating, Galium [10, 11] | Plant response rating, Galium [10, 12] | Plant response rating, Galium [10, 13] | Plant response rating, Galium [10, 14]
30: Ryegrass, Italian plant response rating [5, 16] | Plant response rating, Ryegrass, Italian [5, 17] | Plant response rating, Velvetleaf [8, 13] | Velvetleaf plant response rating [8, 16]
55: Plant response rating, Velvetleaf [8, 14]
40: Plant response rating, Wheat ([1]; 125 g ai/ha, 0 to 100 scale, 0 is no effect, 100 is complete control) | Plant response rating (scale of 0 to 100), Morningglory ([2]; Preemergence, 250 g ai/ha)
10: Plant response rating, Morningglory [2, 12] | Plant response rating, Morningglory [2, 14] | Plant response rating, Corn [4, 13] | Plant response rating, Blackgrass [7, 14] | Plant response rating, Velvetleaf [8, 11] | Velvetleaf plant response rating [8, 15]

O=C1NCC(c2cc(F)cc(F)c2)C1C(=O)Nc1ccccc1Cl (racemic) [Compound 280]
5: Plant response rating (scale of 0 to 100), Corn ([4]; Preemergence, 250 g ai/ha) | Plant response rating (scale of 0 to 100), Ryegrass, Italian ([5]; Preemergence, 250 g ai/ha)
55: Barnyardgrass plant response rating [6, 15]
0: Plant response rating, Wheat [1, 20] | Plant response rating, Wheat ([1]; 500 g ai/ha, 0 to 100 scale (0 no effect, 100 complete control)) | Plant response rating, Morningglory [2, 17] | Plant response rating, Pigweed [3, 21] | Plant response rating, Pigweed ([3]; Postemergence, 500 g ai/ha, 0 to 100 scale (0 no effect, 100 complete control)) | Plant response rating, Pigweed [3, 22] | Plant response rating, Pigweed [3, 18] | Corn plant response rating [4, 15] | Corn plant response rating [4, 16] | Plant response rating, Corn [4, 17] | Ryegrass, Italian plant response rating [5, 15] | Ryegrass, Italian plant response rating [5, 16] | Plant response rating, Ryegrass, Italian [5, 17] | Blackgrass plant response rating [7, 15] | Blackgrass plant response rating [7, 16] | Plant response rating, Blackgrass [7, 17] | Plant response rating (scale of 0 to 100), Blackgrass ([7]; Preemergence, 250 g ai/ha) | Velvetleaf plant response rating [8, 15] | Velvetleaf plant response rating [8, 16] | Plant response rating, Velvetleaf [8, 17] | Nutsedge, Yellow plant response rating [9, 15] | Nutsedge, Yellow plant response rating [9, 16] | Plant response rating, Nutsedge, Yellow [9, 17] | Galium plant response rating [10, 15] | Galium plant response rating [10, 16] | Plant response rating, Galium [10, 17]
95: Plant response rating (scale of 0 to 100; 0 is no effect, 100 is complete control), Barnyardgrass ([6]; Preemergence, 250 g ai/ha)
65: Barnyardgrass plant response rating [6, 16]
30: Plant response rating (scale of 0 to 100), Morningglory ([2]; Preemergence, 250 g ai/ha)
85: Plant response rating, Barnyardgrass [6, 17] | Plant response rating (scale of 0 to 100), Galium ([10]; Preemergence, 250 g ai/ha)
25: Morningglory plant response rating [2, 16]
10: Morningglory plant response rating [2, 15] | Plant response rating (scale of 0 to 100), Velvetleaf ([8]; Preemergence, 250 g ai/ha)
100: Plant response rating (scale of 0 to 100), Nutsedge, Yellow ([9]; Preemergence, 250 g ai/ha)

O=C1NCC(c2ccc(OC(F)F)cc2)C1C(=O)Nc1cccc(F)c1F (racemic) [Compound 350]
30: Plant response rating, Galium [10, 24]
20: Plant response rating, Wheat [1, 20] | Plant response rating, Pigweed [3, 21]
0: Corn plant response rating [4, 16] | Plant response rating, Corn [4, 24] | Ryegrass, Italian plant response rating [5, 16] | Plant response rating, Ryegrass, Italian [5, 24] | Blackgrass plant response rating [7, 16] | Plant response rating, Blackgrass [7, 24] | Velvetleaf plant response rating [8, 16] | Plant response rating, Velvetleaf [8, 23] | Plant response rating, Velvetleaf [8, 24] | Nutsedge, Yellow plant response rating [9, 16] | Plant response rating, Nutsedge, Yellow [9, 23] | Plant response rating (scale of 0 to 100), Nutsedge, Yellow ([9]; Preemergence, 250 g ai/ha) | Plant response rating, Nutsedge, Yellow [9, 24]
50: Plant response rating, Pigweed [3, 22] | Plant response rating, Blackgrass [7, 23]
40: Plant response rating (scale of 0 to 100), Corn ([4]; Preemergence, 250 g ai/ha)
5: Plant response rating, Corn [4, 23] | Plant response rating, Ryegrass, Italian [5, 23]
100: Morningglory plant response rating [2, 16] | Plant response rating, Morningglory [2, 23] | Plant response rating (scale of 0 to 100), Morningglory ([2]; Preemergence, 250 g ai/ha) | Plant response rating, Morningglory [2, 24]
75: Plant response rating, Barnyardgrass [6, 24]
90: Barnyardgrass plant response rating [6, 16] | Plant response rating, Barnyardgrass [6, 17] | Plant response rating (scale of 0 to 100; 0 is no effect, 100 is complete control), Barnyardgrass ([6]; Preemergence, 250 g ai/ha) | Plant response rating, Galium [10, 23] | Plant response rating (scale of 0 to 100), Galium ([10]; Preemergence, 250 g ai/ha)
85: Galium plant response rating [10, 16]
80: Pigweed plant response rating ([3]; Preemergence, 500 g ai/ha, visual rating on 0 to 100 scale (0 no effect, 100 complete control))
55: Plant response rating (scale of 0 to 100), Blackgrass ([7]; Preemergence, 250 g ai/ha)
